{
  "source": "patent US20260125730A1",
  "about": "“A NEW INDUCER FOR METHANOL-FREE PICHIA PASTORIS EXPRESSION SYSTEM” (priority 2022, published 2026)",
  "test_system": "AOX1 promoter",
  "assay": "Induction of the AOX1 promoter in recombinant P. pastoris cells carrying the azurin gene; western blot of culture broth with anti-azurin antibody",
  "format": "cell-based, Pichia pastoris",
  "excerpt": "FIG. 1B. Relative expression levels of azurin protein in culture broths\nRecombinant yeast cells were obtained by performing steps A, B and C in the study in which the recombinant DNA obtained by Inserting the azurin gene of Pseudomonas aeruginosa into pPICZαA was integrated into the genome of P. pastoris X33 strain (https://pubmed.ncbi.nlm.nih.gov/33346686/).\nIn this Invention, recombinant Pichia pastoris cells which carry the “azurin protein” gene (as a reference gene) from Pseudomonas aeruginosa in their genomes and can perform the extracellular production of this protein were used.\nSaid protein gene is located in the downstream of the AOX1 promoter in the genome of P. pastoris cells. If the AOX promoter is induced, expression of this gene inserted into the genome can be achieved. […] Methanol or farnesol was added to the culture medium In predetermined amounts every 24 hours.",
  "data": [
    {"smiles": "CC(C)=CCCC(C)=CCCC(C)=CCO", "note": "[farnesol]", "values": [
      {"measurement": "protein expression level among the farnesol groups", "setting": "240 farnesol group compared with 120 and 480 μL/L, 72 hours, FIG. 1B", "result": "highest protein expression level"},
      {"measurement": "protein expression level relative to the 0.5% (v/v) methanol-induced group", "setting": "240 farnesol group, P<0.05, FIG. 1B", "result": "higher than that of the 0.5% (v/v) methanol-induced group"},
      {"measurement": "extracellular protein (azurin) production on induction of the promoter", "setting": "farnesol 120 μL/L, 240 μL/L and 480 μL/L added every 24 hours, sorbitol as carbon source, 30° C., 280 rpm, 72 hours, FIG. 1A", "result": "protein production also occurred"}
    ]},
    {"smiles": "CO", "note": "[methanol]", "values": [
      {"measurement": "protein (azurin) production on induction of the promoter", "setting": "methanol 0.5% v/v (control inducer) added every 24 hours, sorbitol as carbon source, 30° C., 280 rpm, 72 hours, FIG. 1A", "result": "protein production"}
    ]}
  ]
}
